Tested on: HeLa cell nuclei in cytosolic extract
Assay: Apoptosis of isolated nuclei in cell-free system (cytochrome c/dATP)
Details: 0.4 μM protein with 10 μM cytochrome c and 1 mM dATP; 37° C., 60 min; baseline about 15%, cytochrome c/dATP alone >95%
Protocol: Cells were washed with ice cold buffer A (20 mM Hepes (pH 7.5), 10 mM KCl, 1.5 mM MgCl2, 1 mM EDTA, 1 mM DTT and 0.1 mM PMSF) and suspended in 1 vol buffer A, then incubated on ice for 20 min. 293 cells were disrupted by passage 15× through a 26 gauge needle and Jurkat T cells were disrupted by dounce homogenization in 2 ml using 15 strokes with a pestle B. Cell extracts (10–15 mg total protein/ml) were clarified by centrifugation at 16,000×g for 30 min, then the NaCl concentration was increased by 50 mM. Cytosolic fractions were used immediately or stored frozen at −80° C.
Isolated nuclei were prepared from HeLa cells (Martin et al., supra, 1995). Approximately 5×10^4 to 1×10^5 nuclei were added to 20 μl cytosolic extract and apoptosis was initiated by adding 10 μM horse heart cytochrome c (Sigma, Inc.; St. Louis Mo.) and 1 mM dATP, alone (positive control) or with cytochrome c, dATP and either 0.4 μM GST-XIAP or 0.4 μM GST-Bcl-2. Following incubation at 37° C. for 60 min., nuclei were stained with 1 μg/ml of acridine orange and ethidium bromide and the percentage nuclei with apoptotic features, including extremely condensed chromatin and the genesis of fragmentation of nuclei, was determined.

XIAP: X chromosome linked inhibitor of apoptosis protein (Genbank U32974), used mostly as recombinant GST fusion or expressed from plasmid
apoptotic nuclei: about 15%
